A short description of the series: diffusion coefficient of molecules through a filtration membrane, co-current filtration system, regression of analytic model. Type of series: physicochemical. The following applies: least-squares regression of analytic model on concentration ratio versus time. The source says: Such systems may also be used for characterizing a filtration membrane 130. For example, it is possible to evaluate a diffusion coefficient of a molecule for a given membrane 130 from a physical model and measurements of concentration of the molecule in the first chamber 110 and/or the second chamber 120 versus time. The co-current system may be used for calibrating the model and estimating the diffiusion coefficient, and the countercurrent system may be used for checking the diffusion coefficient or vice versa.
In particular, the applicant modeled the time-dependent change of the concentration in the first chamber 110, in the case when a fluid to be filtered circulates in the second chamber 120, with the following equations: • in the case of a co-current flow (like in FIG. 9): […]
and • C1(t) represents the concentration in the first chamber 110 as a function of time t, • L represents the (common) length of the first and second chambers 110, 120, • b represents the (common) width of the first and second chambers 110, 120, • Qf represents the filtration flow rate, • V1 represents the volume of the first chamber 110, • V2 represents the volume of the second chamber 120, • C1o represents the initial concentration in the first chamber 110, • C1∞ represents the equilibrium concentration in the first chamber 110, • Dm represents the diffusion coefficient of the molecule to be filtered for the membrane 130, and • δ represents the thickness of the membrane.
By means of these models, it is possible to determine the values of the diffusion coefficient Dm of the molecules tested for a given membrane 130. For this, for example it is possible to operate in the co-current mode and measure the disappearance of the molecule in the second chamber 120 (and therefore its appearance in the first chamber 110).
In FIGS. 11 and 12 the change in the concentration-over-initial-concentration-in-the-second-chamber 120 ratio is illustrated versus time for given experimental conditions, for urea (FIG. 11) and vitamin B12 (FIG. 12) respectively, with several types of membrane. Moreover, the applicant has also determined this ratio for albumin (graph not shown).
The experimental results are illustrated, for an experiment with a membrane of high porosity (of the 8F type) by icons □, Δ, and for an experiment with a membrane of low porosity (of the 1 FPH type) by icons: *, ◯. A regression of the analytic model is then made for example with a minimization by least squares, in which it is possible to obtain experimentally the diffusion coefficients in (m^2/s) listed in the following table: […]

Take vitamin B12: the “diffusion coefficient Dm” value is, setting by setting: (membrane 1 FPH (low porosity)) 4 × 10^−13 m^2/s; (membrane 8F (high porosity)) 6 × 10^−12 m^2/s.
For `NC(N)=O` [Urea, urea] the same measures were 2 × 10^−12 m^2/s and 2 × 10^−11 m^2/s.
On to albumin, for which the “diffusion coefficient Dm” value reads like this: (membrane 1 FPH (low porosity)) 9 × 10^−14 m^2/s; (membrane 8F (high porosity)) 2 × 10^−13 m^2/s.
